Measured values taken from US7241732B2, “Compositions and methods involved in bone growth” (University of Rochester, priority 2001, dated 2007).

Tests used:
ROS 17/2.8 cells = experiment: Apoptosis of ROS 17/2.8 cells on exposure to TRAP (morphology, alkaline phosphatase stain); format: cell-based; conditions: 0.1% DMSO, then TRAP 5 ug/mL
Excerpt: DMSO, at this low concentration, itself won't cause any toxic effect on cells but can scavenge most of reactive oxygen species. […] Therefore, the TRAP-induced cell apoptosis is not due to a reactive oxygen species effect.

D14 primary osteoblasts = experiment: OPG sandwich ELISA; format: cell-based; conditions: following treatment
Description: OPG is the deccoy receptor for the RNAKL and stop the osteoclastogenesis. RANKL and OPG has been proposed for the regulation of osteoclast differentiation function. Both OPG and RANKL can themselves also be regulated by TGF-β (MacDonald R G, Science 239:1134-7, (1988)). […] This lower the secretion amount of OPG the less the protection afforded from the osteoclast.
(§1) After incubation, the plates were washed with PBS-Tween.

SW408 cells = experiment: P3TP-Lux reporter in Smad4 deficient cells; format: cell-based
Excerpt: SW408 cells are deficient in Smad4, a requisite co-factor for Smad2 and 3 signaling. […] However, when the cells are transfected with both Smad4 and TRIP-1, restoration of Smad signaling can occur. All values are the mean±SEM. * p 0.05 and ** p 0.01 as compared to control.

[1] = system: P3TP-Lux reporter in MG-63 cells; experiment: P3TP-Lux Smad 2,3 reporter in osteoblast cell lines; format: cell-based, human
Excerpt: P3TPLux is a Smad 2, 3 sensitive reporter. […] Co-transfection of the cells with a dominant negative TGFβ type II receptor blocks all TRAP and TGFβ signaling. Each bar is the mean of at least four determinations±SEM. * p 0.05 and ** p 0.01 as compared to control. The data for MG-63 cells are shown. The data for the SaOS2 cells are the same (data not shown).
The data with the MG-63 cell is what is shown.

isolated osteoblasts = experiment: Osteoblast phenotypic markers (alkaline phosphatase, Runx2, OPG, collagen); format: cell-based, rat; conditions: TRAP 10 μg/ml, TGFβ 2 ng/ml; percent of control, FIG. 14
Description: The qualitative pattern of stimulation by TRAP and TGFβ for markers of osteoblast differentiation is similar. […] Alkaline phosphatase (Alk. Phos.) was measured in a direct biochemical assay. Runx2 and osteoprotegerin (OPG) were quantified in an ELISA assay using commercially available antibodies. Collagen was measured by determining the amount of collagenase-digestible protein present in pre-labeled osteoblasts (34). All data are expressed as a percent of the control, untreated cells. All data points are the mean±one SEM. * p 0.05. ** p 0.01.
Isolated osteoblasts were prepared from neo-natal rat calvaria as previously described (Martinez D A, et al., J. Cellular Biochemistry 59: 246-257 (1995)). Alkaline phosphatase assays and standard Western analyses were performed as previously described (Ionescu A M. ET AL., Journal of Biological Chemistry. 276:11639-47 (2001)).
as §1
Osteoblast differentiation at sites of bone remodeling is mediated by a number of regulatory factors. One of the key factors is TGFβ. In most systems, including the typically the disclosed system, TGFβ is known to be a potent enhancer of the osteoblast phenotype.

[2] = system: TGFβ reporter construct (P3TPlux); experiment: P3TP lux TGFβ reporter in transfected osteoblasts; format: cell-based; conditions: FIG. 9
Description: Note the difference in scales. N=4-6.
Functionality of TRIP for TGFβ signaling was determined by measuring the activation of a TGFβ promoter/reporter construct, P3TP Lux (see Experimental Design for a complete description of this construct).
Osteoblasts, cultured at 30-40% confluence in 6-well plates, are transfected on day 2 after plating using the transfection reagent Superfect (Qiagen Santa Clarita, Calif.) according to the manufacturer's guidelines. Individual experiments are internally controlled for amount of total plasmid DNA, with equal amounts of p3TP-Lux reporter, control SV40-renilla plasmid for normalization of transfection efficiency, and target construct and/or vector control DNA for all co-transfection experiments. Following transfection, the cells are placed in media containing DMEM, Penicillin/Streptomycin, and 10% NuSerum IV. After 12 hours, they are incubated for 6 hours in serum-free media (containing DMEM, hyaluronidase 4 U/ml, Penicillin/Streptomycin, and supplemented with 10 pM triiodothyronine (Sigma, St. Louis, Mo.), 60 ng/ml insulin, and 1 mM cysteine (Sigma, St. Louis, Mo.)) plus the factor or cytokine of interest. Eighteen hours later, the cells are harvested and assayed for luciferase activity using the Promega dual luciferase assay system. Renilla luciferase values were used to normalize each sample for transfection efficiency.

[3] = target: T1, TGFβRII, HIS-TRIP and Smad 2 (Homo sapiens, UniProt Q13347); experiment: GST-TRAP pull-down of receptor complex from transfected 293T cells; format: binding; conditions: exogenous GST-TRAP 12 hours
T1 construct: expressed in transfected cells; host or cells: 293T cells transfected with TGFβRII and His-TRIP-1; Smad 2 endogenous
Excerpt: 293T cells were transfected with TGFβRII. Some of these cells were then co-transfected with a “His”-tagged TRIP-1 (His-TRIP-1). In lane A, in which both the receptor and TRIP-1 were present, but GST-TRAP was not added, no parts of the complex could be “pulled down” with glutathione coated beads. The same was true if His-TRIP-1 was not transfected into the cells. However, if the receptor, TRIP-1 and GST-TRAP were all present, a protein complex composed of the receptor, TRIP-1 and Smad 2 could be extracted with glutathione coated beads.
GST-TRAP and GST-TRIP fusion proteins, and GST control protein were purified as instructed by the manufacturer (Amersham Pharmacia). Briefly, plasmids containing GST-fusion protein expressing cDNA were transformed into a BL21DE3)pLysS bacteria strain and selected for ampicillin and chloramphenicol resistant colonies. Selected colonies were grown in LB medium at 30° C. until OD600 reached 0.6 to 1. Then 0.1 mM IPTG was added to medium for 3 hours. Bacteria were lysed by B-PER (Pierce) with 1 mM PMSF. Lysed bacteria were spun down and the supernatants were collected. […]
Detection of HIS-TRIP was performed with anti-HIS antibodies and detection of the TGFβRII and Smad 2 were performed with a commercially available antibodies. […] The beads were extensively washed and the proteins interacting with the beads were analyzed with Western analysis.

[4] = system: rat calvarial osteoblasts after 14 days of culture; experiment: Cleaved caspase 3 and cleaved PARP levels; format: cell-based; conditions: day 14 cells, FIGS. 24 and 25
Description: Biochemical confirmation of the effect of TRAP on osteoblast apoptosis was obtained by assaying levels of caspase-3 and poly ADP-ribose polymerase (PARP) in these cells lines. […] Thus, another indicator of a cells progression through apoptosis is a measurement of its cleaved caspase 3 levels. Similarly, poly ADP-ribose polymerase is a substrate for active caspase 3 and increased levels of cleave PARP are indicative of an active caspase.

T1 sequence (Q13347 whole entry): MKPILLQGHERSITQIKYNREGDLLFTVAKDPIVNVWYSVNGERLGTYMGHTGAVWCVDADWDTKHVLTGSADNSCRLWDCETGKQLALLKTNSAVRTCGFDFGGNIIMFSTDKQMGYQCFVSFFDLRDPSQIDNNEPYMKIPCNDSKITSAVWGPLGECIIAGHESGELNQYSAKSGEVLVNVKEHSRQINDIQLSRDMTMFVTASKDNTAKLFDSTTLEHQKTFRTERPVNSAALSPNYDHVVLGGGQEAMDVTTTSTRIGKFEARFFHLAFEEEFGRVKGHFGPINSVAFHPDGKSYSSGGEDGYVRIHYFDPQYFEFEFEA
T1 sequence (P37173 23-567 partner): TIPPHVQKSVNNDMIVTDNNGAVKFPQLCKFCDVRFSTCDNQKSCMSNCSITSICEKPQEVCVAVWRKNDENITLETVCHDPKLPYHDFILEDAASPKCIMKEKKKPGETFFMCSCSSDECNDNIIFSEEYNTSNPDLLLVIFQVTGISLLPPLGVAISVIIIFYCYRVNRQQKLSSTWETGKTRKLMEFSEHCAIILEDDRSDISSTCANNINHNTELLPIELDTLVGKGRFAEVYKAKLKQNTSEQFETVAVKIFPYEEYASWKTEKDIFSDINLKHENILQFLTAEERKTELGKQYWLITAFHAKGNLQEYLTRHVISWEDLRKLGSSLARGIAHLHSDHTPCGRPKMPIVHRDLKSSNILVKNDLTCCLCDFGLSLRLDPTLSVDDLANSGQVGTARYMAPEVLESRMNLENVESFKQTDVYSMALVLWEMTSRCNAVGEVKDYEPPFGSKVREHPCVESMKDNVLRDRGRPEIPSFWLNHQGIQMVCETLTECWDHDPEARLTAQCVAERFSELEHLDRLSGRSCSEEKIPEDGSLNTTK
T1 sequence (Q15796 2-467 partner limits assumed): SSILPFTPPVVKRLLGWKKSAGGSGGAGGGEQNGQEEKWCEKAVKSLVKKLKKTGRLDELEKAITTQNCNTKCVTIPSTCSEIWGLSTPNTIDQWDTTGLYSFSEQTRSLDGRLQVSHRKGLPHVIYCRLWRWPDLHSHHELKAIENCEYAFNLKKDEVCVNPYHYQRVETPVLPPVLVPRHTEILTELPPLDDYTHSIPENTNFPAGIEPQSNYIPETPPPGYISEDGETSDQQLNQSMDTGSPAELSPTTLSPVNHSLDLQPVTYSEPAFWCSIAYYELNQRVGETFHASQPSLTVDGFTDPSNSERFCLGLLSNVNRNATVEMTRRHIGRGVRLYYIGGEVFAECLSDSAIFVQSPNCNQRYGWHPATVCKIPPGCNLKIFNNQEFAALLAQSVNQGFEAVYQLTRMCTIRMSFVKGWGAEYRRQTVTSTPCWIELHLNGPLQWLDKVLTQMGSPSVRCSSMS

Molecule: C[S+](C)[O-] [DMSO]
- protection from apoptosis induced by TRAP (ROS 17/2.8 cells): did not protect cells from apoptosis induced by TRAP

Molecule: TGFβ
- level of OPG (D14 primary osteoblasts): less Osteoprotegrin (OPG) production
- activation of reporter gene in Smad4 deficient cells (SW408 cells): neither TGFβ nor TRAP could activate the reporter gene
- signaling after restoration of Smad4 and TRIP-1 protein (SW408 cells; cells transfected with Smad4 and TRIP-1): restores TGFβ and TRAP signaling
- P3TP-Lux activation with co-transfected dominant negative type II TGFβ receptor [1]: block both TGFβ and TRAP activation of the pathway
- upregulation of P3TP-Lux reporter gene ([1]; TRAP 10 μg/ml, TGFβ 5 ng/ml, MG-63 shown, SaOS2 the same): strongly upregulate a reporter gene
- effect on alkaline phosphatase activity, Runx 2, OPG and collagen protein synthesis (isolated osteoblasts): an increase in alkaline phosphatase activity, and an increase in Runx 2, osteoprotegerin (OPG) and collagen protein synthesis
- activation of P3TP lux [2]: strongly activate P3TP lux

B1: GST-TRAP: recombinant fusion protein of GST and TRAP, non-glycosyl protein made in bacteria (protein)
chain: ATPALRFVAVGDWGGVPNAPFHTAREMANAKEIARTVQILGADFILSLGDNFYFTGVQDINDKRFQETFEDVFSDRSLRKVPWYVLAGNHDHLGNVSAQIAYSKISKRWNFPSPFYRLHFKIPQTNVSVAIFMLDTVTLCGNSDDFLSQQPERPRDVKLARTQLSWLKKQLAAAREDYVLVAGHYPVWSIAEHGPTHCLVKQLRPLLATYGVTAYLCGHDHNLQYLQDENGVGYVLSGAGNFMDPSKRHQRKVPNGYLRFHYGTEDSLGGFAYVEISSKEMTVTYIEASGKSLFKTRLPRRARP
modifications: left off: a dimerising Fc or GST
notes: recombinant fusion protein of GST and TRAP, non-glycosyl protein made in bacteria
- proteins pulled down with glutathione beads [3]: the complex of the TGFβRII, HIS-TRIP and Smad 2 can be extracted and detected
- cleaved caspase 3 and cleaved PARP [4]: have the same effect on the cells
